From patent publication US20230233565A1, “A TREATMENT APPROACH INVOLVING KIF18A INHIBITION FOR CHROMOSOMALLY UNSTABLE TUMORS” (UNIVERSITY OF VERMONT, priority 2020, published 2023) come the findings set out here.

What all share (type): cell-based
In experiment [1] the test system is MDA-MB-231 cells. Description: Kinetic cell proliferation assay, siRNA plus UMK57 or DMSO. Here is the method:
HT29, LoVo, SW480, LS1034, HCC1806, HCT116, MCF10A, MDA-MB-231, and MDA-MB-468 cells were purchased from ATCC (Manassas, Va.). All cell lines were validated by STR DNA fingerprinting using the Promega GenePrint® 10 System according to manufacturer's instructions (Promega #B9510). HT29, LoVo, SW480, MDA-MB-231, and MDA-MB-468 cells were cultured in DMEM/F-12 medium (Gibco) supplemented with 10% FBS (Gibco) and 1% penicillin/streptomycin (pen/strep). LS1034 and HCC1806 cells were cultured in RPMI 1640 medium (Gibco) with 10% FBS and 1% pen/strep. […]
Cells were imaged in either a 96- or 24-well dish every two or four hours for up to five days using the Cytation 5 Cell Imaging Multi-Mode Reader (Biotek, Winooski, Vt.) driven by Gen5 software (Biotek, Winooski, Vt.). […] Between imaging reads, cells were incubated at 37° C. with 5% CO2 using the Biospa 8 Automated Incubator (Biotek, Winooski, Vt.). […] To determine rates of cell proliferation, the fold change in cells/mm^2 between the first and last reads of each well were calculated and normalized to the control for each experiment. […] For cytotoxicity assays, CellTox™ Green Dye (Promega, Madison, Wis.) was added to cell media prior to imaging, and the number of cells/mm^2 was recorded for both GFP and brightfield channels. […]

In experiment [2] the test system is MDA-MB-231 cells. Briefly: Mitotic index from fixed-cell images. Particulars: 500 nM UMK57 in KIF18A-depleted cells, versus DMSO. The protocol:
(§1) For experiments involving siRNA knockdown followed by drug treatment, the indicated concentrations of paclitaxel (Selleck Chemicals, Houston, Tex.), nocodazole (Selleck Chemicals, Houston, Tex.), and/or monastrol (Selleck Chemicals, Houston, Tex.) were added to cells 24 h after siRNA treatment. Three hours after drug addition, cells were either fixed and stained for immunofluorescence imaging or imaged live in a glass-bottom 24-well dish. To compare the effects of paclitaxel treatment to the effects of KIF18A KD in MDA-MB-231 and MCF10A cell lines, 10 nM of paclitaxel was added to cells 24 h before fixing and staining for immunofluorescence imaging.
(§2) To measure the length of mitosis, live cells were imaged every two minutes for 16-20 hours using differential interference contrast (DIC) microscopy. The time between nuclear envelope breakdown (NEB) and anaphase onset (AO) was used to indicate the time a cell spent in mitosis. Mitotic index was measured using fixed-cell images by counting the number of mitotic cells divided by the total number of cells. All mitotic index fields were taken with a 40×objective. An unpaired t-test was used to determine statistical significance between control and KIF18A KD conditions for each cell line.

For experiment [3], the system named is MDA-MB-231 cells. Briefly: Mitotic spindle morphology analysis (multipolar spindles, centrioles, fixed cells). Here is the method: as §1
Cells were grown on glass coverslips and fixed using either −20° C. methanol or 1% paraformaldehyde in −20° C. methanol. Cells were blocked with 20% goat serum in antibody diluting buffer (Abdil—TBS, 1% BSA, 0.1% Triton X-100, and 0.1% sodium azide) and incubated with the following primary antibodies: mouse anti-α-tubulin (DM1α) 1:500 (Millipore Sigma, Burlington Mass.) for one hour at room temperature (RT), human anti-centromere antibody (ACA) 1:250 (Antibodies Incorporated) overnight at 4° C., rabbit anti-γ-tubulin 1:500 (Abcam, Cambridge, Mass.) for one hour at RT, mouse anti-γ-tubulin 1:500 for one hour at RT (Abcam, Cambridge, Mass.), rabbit anti-KIF18A 1:100 (Bethyl Laboratories, Montgomery, Tex.) at 4° C. overnight, mouse anti-centrin-1 1:500 (Santa Cruz Biotechnology) for one hour at RT, and rabbit KIF18B 1:2000 (Shin et al., “Biased Brownian Motion as a Mechanism to Facilitate Nanometer-scale Exploration of the Microtubule Plus End by a Kinesin-8,” Proc National Acad Sci 112:E3826-35 (2015), which is hereby incorporated by reference in its entirety) for one hour at RT. Secondary antibodies conjugated to Alexa Fluor 488, 594, and 647 (Molecular Probes, Eugene, Oreg.) were used at concentrations of 1:15000 for one hour at RT. Coverslips were mounted onto glass slides using Prolong Gold anti-fade mounting medium with DAPI (Molecular Probes, Eugene, Oreg.).
(§3) To analyze mitotic spindle morphology, cells were fixed and stained for γ-tubulin, α-tubulin, and centrin-1. Enough optical slices spaced 200 nm apart were captured to visualize the entire 3-D structure of the spindle. Spindles with three or more visible microtubule-organizing centers were classified as multipolar. Cells were considered to have fragmented pericentriolar material (PCM) if they had supernumerary poles observed via γ-tubulin staining but lacked centrioles (centrin-1 puncta) at one or more of the poles. Intercentriolar distance, or the distance in microns between two centrioles in a pair, was measured from the center of one centriole to the center of the adjacent centriole.

The subject of experiment [4] is MDA-MB-231 cells. Description: Live imaging with siR-tubulin (spindle pole splitting). Particulars: UMK57 in KIF18A KD cells. Here is the method: Cells were plated in a glass-bottom 24-well dish and treated with the indicated siRNA approximately 24 hours before imaging. Six hours before imaging, the cell culture media was replaced with CO2-independent media containing […] SiR-tubulin (Cytoskeleton). For conditions involving UMK57 or DMSO, the specified drug was added to the CO2-independent media with siR-tubulin. Cells were imaged every 2 minutes for 16-20 hours using a 40×0.75 NA objective (Nikon).

Experiment [5] relates to diploid MCF10A cells. Briefly: Mitotic index from fixed-cell images. Particulars: 10 nM paclitaxel, 24 h. Here is the method:
as §1, §2

The test system of experiment [6] is diploid MCF10A cells. Briefly: Mitotic spindle morphology analysis (multipolar spindles, fixed cells). As to conditions: 10 nM paclitaxel, 24 h. The protocol: as §1, §3

With `Cc1ccc(-c2csc3ncnc(N4CCCC4)c23)cc1` [UMK57], the proliferation result in the experiment with MDA-MB-231 cells [1] (500 nM UMK57 in KIF18A-depleted cells, versus DMSO) was “decreased proliferation”; in the experiment with MDA-MB-231 cells [1] (500 nM UMK57 in control siRNA-treated cells) it was “no impact on the proliferation”. Also, the mitotic index result in the experiment with MDA-MB-231 cells [2] was “increased”. In addition, in the experiment on MDA-MB-231 cells [3] (500 nM UMK57 in KIF18A KD cells, versus DMSO), the “percentage of multipolar spindles” value was “small but significant increase in multipolar spindles”. The “chromosome alignment defects in bipolar spindles” value in the experiment with MDA-MB-231 cells [3] (UMK57 in KIF18A KD cells) was “without an obvious change in chromosome alignment defects”. Besides, the spindle pole splitting result with MDA-MB-231 cells [4] is “increased spindle pole splitting”.

For `COC(=O)Nc1nc2ccc(C(=O)c3cccs3)cc2[nH]1` [nocodazole], the “multipolar spindles in KIF18A KD cells” value in the experiment on MDA-MB-231 cells [3] (5 μM nocodazole for 3 h, versus DMSO) is listed as “significantly fewer multipolar spindles”.

Turning to `CC(=O)O[C@H]1C(=O)[C@@]2(C)[C@H]([C@H](OC(=O)c3ccccc3)[C@]3(O)C[C@H](OC(=O)[C@H](O)[C@@H](NC(=O)c4ccccc4)c4ccccc4)C(C)=C1C3(C)C)[C@]1(OC(C)=O)CO[C@@H]1C[C@@H]2O` [paclitaxel], the mitotic index entry in the experiment on diploid MCF10A cells [5] is “increased the mitotic index”. Further, the “multipolar spindles in KIF18A KD cells” value with MDA-MB-231 cells [3] (20 nM paclitaxel for 3 h, versus DMSO) was “significantly fewer multipolar spindles”. Also, the “mitotic defects (mitotic index, multipolar spindles)” value with MDA-MB-231 cells [3] (MDA-MB-231, KIF18A KD versus 10 nM paclitaxel (24 h)) is reported as “produced similar mitotic defects”. The multipolar spindles entry in the experiment with diploid MCF10A cells [6] is recorded as “increased”.
